In US20220348564A1, “PHENYL-[1,3]DIOXOLO[4,5-C]PYRIDINYL-PHENYL-, PHENYL-[1,3]DIOXOLO[4,5-C]PYRIDINYL-HETEROARYL-, OR PHENYL-(1,3)DIOXO[4,5-C]PYRIDINYL-PIPERIDINYL-METHYL-OXETANYLMETHYL-1H-BENZO[D]IMIDAZOLE-CARBOXYLIC ACID DERIVATIVES AND METHODS OF USING SAME” (Eccogene (Shanghai) Co., Ltd., priority 2021, published 2022):

Biological target: T1, human GLP-1 (Homo sapiens, UniProt P43220)
T1 construct: expressed in transfected cells
Test: h-GLP-1 activity assay (Cisbio cAMP Gs dynamic kit, HTRF)
Format: cell-based
Conditions: HEK293 cells with stable expression of human GLP-1, relative EC50, 10 nM human GLP-1 = 100% response
Description: Human GLP-1 agonizing activity was detected in HEK293 cells with stable expression of human GLP-1 by Cisbio cAMP Gs dynamic kit (Catalog #62AM4PEC) according to manufacturer's protocol. Briefly, cells were collected and resuspended in assay buffer containing 0.1% BSA and 0.5 mM of IBMX at concentration to 2.5×10^5 cells/mL. Two μL 5× compound solution and 8 μL cell suspension were added to each well of low-volume 384 white assay plate. After 30 min incubation at 37° C., 5 μL cAMP-d2 working solution and 5 μL anti-cAMP antibody-cryptate were added to each well, and incubate at room temperature for 1 hr. Series dilution of cAMP was used as standard. Human GLP-1 (7-37) was used as positive control and 10 nM human GLP-1 was set as 100% response. HTRF signals were read at 665 and 615 nm with EnVision plate reader and calculated cAMP concentration by intrapolation to the standard curve. The EC50 value of the tested compounds was calculated by fitting the dose response curve using a 4-parameter non-linear regression routine and relative EC50 was presented in Table S.

T1 sequence (P43220 24-463): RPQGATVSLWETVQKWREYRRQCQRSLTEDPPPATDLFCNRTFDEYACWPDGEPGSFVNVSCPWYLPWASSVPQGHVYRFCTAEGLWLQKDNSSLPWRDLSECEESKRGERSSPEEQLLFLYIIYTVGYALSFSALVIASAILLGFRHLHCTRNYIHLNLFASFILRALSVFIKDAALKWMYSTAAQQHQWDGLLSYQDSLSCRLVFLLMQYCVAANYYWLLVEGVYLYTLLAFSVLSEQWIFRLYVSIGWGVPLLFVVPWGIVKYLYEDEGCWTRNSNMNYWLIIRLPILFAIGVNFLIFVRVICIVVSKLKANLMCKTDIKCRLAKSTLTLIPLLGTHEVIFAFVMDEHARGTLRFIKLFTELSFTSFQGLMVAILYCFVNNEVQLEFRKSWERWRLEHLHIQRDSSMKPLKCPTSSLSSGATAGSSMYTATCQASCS

SMILES | EC50 [nM]
N#Cc1ccc(COc2cccc([C@H]3CC[C@@H](Cc4nc5ccc(C(=O)O)cc5n4C[C@@H]4CCO4)OC3)n2)c(F)c1 (single isomer, unassigned) [Compound 33] | < 20
CC1(c2ccc(Cl)cc2F)Oc2cccc(C3CCC(Cc4nc5ccc(C(=O)O)cc5n4C[C@@H]4CCO4)OC3)c2O1 (mixture of isomers) [Compound 56, 2-((5-(2-(4-chloro-2-fluorophenyl)-2-methylbenzo[d][1,3]dioxol-4-yl)tetrahydro-2H-pyran-2-yl)methyl)-1-(((S)-oxetan-2-yl)methyl)-1H-benzo[d]imidazole-6-carboxylic acid] | < 20
N#Cc1ccc(COc2cccc([C@@H]3CC[C@@H](Cc4nc5ccc(C(=O)O)cc5n4C[C@@H]4CCO4)OC3)n2)c(F)c1 (single isomer, unassigned) [Compound 31] | < 20
C[C@@]1(c2ccc(Cl)cn2)Oc2cccc(C3=CC[C@@H](Cc4nc5ccc(C(=O)O)cc5n4C[C@@H]4CCO4)OC3)c2O1 (single isomer, unassigned) [Compound 79] | > 100
C[C@]1(c2ccc(Cl)cn2)Oc2cccc(C3=CC[C@H](Cc4nc5c(F)cc(C(=O)O)cc5n4Cc4cscn4)OC3)c2O1 (single isomer, unassigned) [Compound 116] | < 20
CCC1(c2ccc(Cl)cc2F)Oc2cccc(-c3ccc(Cc4nc5ccc(C(=O)O)cc5n4C[C@@H]4CCO4)cc3)c2O1 (mixture of isomers) [Compound 7, 2-(4-(2-(4-chloro-2-fluorophenyl)-2-ethylbenzo[d][1,3]dioxol-4-yl)benzyl)-1-(((S)-oxetan-2-yl)methyl)-1H-benzo[d]imidazole-6-carboxylic acid] | > 100
O=C(O)c1ccc2nc(Cc3ccc(-c4cccc5c4NC(=O)C(c4ccc(Cl)cc4F)O5)cc3)n(C[C@@H]3CCO3)c2c1 (mixture of isomers) [Compound 42, 2-(4-(2-(4-chloro-2-fluorophenyl)-3-oxo-3,4-dihydro-2H-benzo[b][1,4]oxazin-5-yl)benzyl)-1-(((S)-oxetan-2-yl)methyl)-1H-benzo[d]imidazole-6-carboxylic acid] | > 100
C[C@]1(c2ccc(Cl)cn2)Oc2cccc(C3=CC[C@H](Cc4nc5ccc(C(=O)O)cc5n4Cc4cscn4)OC3)c2O1 (single isomer, unassigned) [Compound 114] | 20 to 100
O=C(O)c1ccc2nc(CC3CC=C(c4cccc5c4OC(c4ccc(Cl)cc4F)CO5)CO3)n(C[C@@H]3CCO3)c2c1 (mixture of isomers) [Compound 70, 2-((5-(3-(4-chloro-2-fluorophenyl)-2,3-dihydrobenzo[b][1,4]dioxin-5-yl)-3,6-dihydro-2H-pyran-2-yl)methyl)-1-(((S)-oxetan-2-yl)methyl)-1H-benzo[d]imidazole-6-carboxylic acid] | 20 to 100
N#Cc1ccc(COc2cccc(N3CCC(Oc4nc5ccc(C(=O)O)cc5n4C[C@@H]4CCO4)CC3)n2)c(F)c1 [Compound 80, (S)-2-((1-(6-((4-cyano-2-fluorobenzyl)oxy)pyridin-2-yl)piperidin-4-yl)oxy)-1-(oxetan-2-ylmethyl)-1H-benzo[d]imidazole-6-carboxylic acid] | > 100
C[C@@]1(c2ccc(C(F)(F)F)cn2)Oc2cccc(C3=CCC(Cc4nc5ccc(C(=O)O)cc5n4C[C@@H]4CCO4)OC3)c2O1 (single isomer, unassigned) [Compound 121] | < 20
C[C@@]1(c2ccc(Cl)cn2)Oc2cccc(N3CC=C(Cc4nc5ccc(C(=O)O)cc5n4C[C@@H]4CCO4)CC3)c2O1 (single isomer, unassigned) [Compound 77] | < 20
C[C@@]1(c2ccc(Cl)cn2)Oc2cccc(C3CCN(Cc4nc5ccc(C(=O)O)cc5n4C[C@@H]4CCO4)CC3(F)F)c2O1 (single isomer, unassigned) [Compound 76] | < 20
O=C(O)c1ccc2nc(CC3CC(c4cccc(OCc5ccc(Cl)cc5F)n4)CO3)n(C[C@@H]3CCO3)c2c1 (mixture of isomers) [Compound 71, 2-((4-(6-((4-chloro-2-fluorobenzyl)oxy)pyridin-2-yl)tetrahydrofuran-2-yl)methyl)-1-(((S)-oxetan-2-yl)methyl)-1H-benzo[d]imidazole-6-carboxylic acid] | > 100
CC1(c2ccc(Cl)cc2F)Oc2cccc(-c3ncc(Cc4nc5ccc(C(=O)O)cc5n4C[C@@H]4CCO4)cn3)c2O1 (mixture of isomers) [Compound 21, 2-((2-(2-(4-chloro-2-fluorophenyl)-2-methylbenzo[d][1,3]dioxol-4-yl)pyrimidin-5-yl)methyl)-1-(((S)-oxetan-2-yl)methyl)-1H-benzo[d]imidazole-6-carboxylic acid] | 20 to 100
C[C@@]1(c2ccc(Cl)cn2)Oc2cccc(C34CCN(Cc5nc6ccc(C(=O)O)cc6n5C[C@@H]5CCO5)CC3C4)c2O1 (single isomer, unassigned) [Compound 72] | < 20

SMILES | EC50 [nM]
C[C@@]1(c2ccc(Cl)cn2)Oc2cccc(C3(F)CCN(Cc4nc5ccc(C(=O)O)cc5n4C[C@@H]4CCO4)CC3)c2O1 (single isomer, unassigned) [Compound 83] | 20 to 100
C[C@]1(c2ccc(C(F)(F)F)cn2)Oc2cccc(C3=CCC(Cc4nc5c(F)cc(C(=O)O)cc5n4C[C@@H]4CCO4)OC3)c2O1 (single isomer, unassigned) [Compound 122] | > 100
C[C@@]1(c2ccc(Cl)cc2F)Oc2cccc(-c3ccc(Cc4nc5ccc(C(=O)O)cc5n4C[C@@H]4CCO4)nc3)c2O1 (single isomer, unassigned) [Compound 4] | > 100
CC1(c2ccc(C(F)(F)F)cc2F)Oc2cccc(-c3ccc(Cc4nc5ccc(C(=O)O)cc5n4C[C@@H]4CCO4)cc3)c2O1 (mixture of isomers) [Compound 26, 2-(4-(2-(2-fluoro-4-(trifluoromethyl)phenyl)-2-methylbenzo[d][1,3]dioxol-4-yl)benzyl)-1-(((S)-oxetan-2-yl)methyl)-1H-benzo[d]imidazole-6-carboxylic acid] | < 20
CC1(c2ccc(Cl)cn2)COc2cccc(C3CCN(Cc4nc5ccc(C(=O)O)cc5n4C[C@@H]4CCO4)CC3)c2OC1 (mixture of isomers) [Compound 86, 2-((4-(3-(5-chloropyridin-2-yl)-3-methyl-3,4-dihydro-2H-benzo[b][1,4]dioxepin-6-yl)piperidin-l-yl)methyl)-1-(((S)-oxetan-2-yl)methyl)-1H-benzo[d]imidazole-6-carboxylic acid] | > 100
C[C@]1(c2ccc(Cl)cc2F)Oc2cccc(-c3ccc(Cc4nc5ccc(C(=O)O)cc5n4C[C@@H]4CCO4)nc3)c2O1 (single isomer, unassigned) [Compound 18] | < 20
CC1(c2ccc(Cl)cc2F)Oc2cccc(-c3cnc(Cc4nc5ccc(C(=O)O)cc5n4C[C@@H]4CCO4)nc3)c2O1 (mixture of isomers) [Compound 17, 2-((5-(2-(4-chloro-2-fluorophenyl)-2-methylbenzo[d][1,3]dioxol-4-yl)pyrimidin-2-yl)methyl)-1-(((S)-oxetan-2-yl)methyl)-1H-benzo[d]imidazole-6-carboxylic acid] | < 20
C[C@@]1(c2ccc(Cl)cn2)Oc2cccc(C34COC(Cc5nc6ccc(C(=O)O)cc6n5C[C@@H]5CCO5)CC3C4)c2O1 (single isomer, unassigned) [Compound 75] | > 100
CC1(c2ccc(Cl)cc2F)Oc2cccc(-c3ccc(Cc4nc5ccc(C(=O)O)cc5n4C[C@@H]4CCO4)cc3)c2O1 (mixture of isomers) [Compound 15, 2-(4-(2-(4-chloro-2-fluorophenyl)-2-methylbenzo[d][1,3]dioxol-4-yl)benzyl)-1-(((S)-oxetan-2-yl)methyl)-1H-benzo[d]imidazole-6-carboxylic acid] | < 20
C[C@]1(c2ccc(Cl)cn2)Oc2cccc(C3=CC[C@@H](Cc4nc5ccc(C(=O)O)cc5n4Cc4cncs4)OC3)c2O1 (single isomer, unassigned) [Compound 113] | 20 to 100
C[C@]1(c2ccc(Cl)cc2F)Oc2cccc(C3=CC[C@H](Cc4nc5ccc(C(=O)O)cc5n4C[C@@H]4CCO4)OC3)c2O1 (single isomer, unassigned) [Compound 107] | > 100
C[C@@]1(c2ccc(Cl)cc2F)Oc2cccc(C3CCN(Cc4nc5ccc(C(=O)NS(=O)(=O)C6CC6)cc5n4C[C@@H]4CCO4)CC3)c2O1 (single isomer, unassigned) [Compound 24] | < 20
CC1(c2ccc(Cl)cc2F)Oc2cccc(C3=CCC(Cc4nc5ccc(C(=O)O)cc5n4C[C@@H]4CCO4)OC3)c2O1 (mixture of isomers) [Compound 61, 2-((5-(2-(4-chloro-2-fluorophenyl)-2-methylbenzo[d][1,3]dioxol-4-yl)-3,6-dihydro-2H-pyran-2-yl)methyl)-1-(((S)-oxetan-2-yl)methyl)-1H-benzo[d]imidazole-6-carboxylic acid] | < 20
CN1C(=O)C(c2ccc(Cl)cc2F)Oc2c(C3CCN(Cc4nc5ccc(C(=O)O)cc5n4C[C@@H]4CCO4)CC3)cccc21 (mixture of isomers) [Compound 105, 2-((4-(2-(4-chloro-2-fluorophenyl)-4-methyl-3-oxo-3,4-dihydro-2H-benzo[b][1,4]oxazin-8-yl)piperidin-1-yl)methyl)-1-(((S)-oxetan-2-yl)methyl)-1H-benzo[d]imidazole-6-carboxylic acid] | > 100
O=C(O)c1ccc2nc(CCN3CC(c4cccc(OCc5ccc(Cl)cc5F)n4)C3)n(C[C@@H]3CCO3)c2c1 [Compound 82, (S)-2-(2-(3-(6-((4-chloro-2-fluorobenzyl)oxy)pyridin-2-yl)azetidin-1-yl)ethyl)-1-(oxetan-2-ylmethyl)-1H-benzo[d]imidazole-6-carboxylic acid] | 20 to 100
